How the values were obtained:
HL60 cells [1] = assay: Rat HL60/estradiol tumor model with magnetic field exposure, tumor histopathology (H&E); type: in vivo; settings: paclitaxel treated group, 40 mg/kg body weight; H&E 400×
Protocol: (§1) Efficacy studies of BMND were conducted in a rat model. Rats were injected with HL60 cells and estradiol to induce the generation of tumors on various organs. This is a well-established rat model of human tumors. The positive control comprised six healthy rats with no tumor induction and no drug treatment. The negative control comprised six tumor bearing rats with no drug treatment. The test groups included six rats in each group, all induced for tumors, and treated with either paclitaxel (gold standard chemotherapeutic; 40 mg/KG body weight), anti-HL60-BMND at 100 μg/kG body weight, or anti-HL60-BMND at 200 μg/KG body weight.
(§2) Procedure: Rats were inoculated with estradiol-17ß (1.7 mg/pellet) before an injection of 1×10^7 HL60 cells intravenously into tail vein. If tumor observed at various organs, the tumor size could be measured in three dimensions with calipers every 2 days starting at day 7. If tumor was not observed/not palpable, then tumor induction was confirmed by histopathology. […] After confirmation of tumor induction by histopathology, treatment was started.
The rats were exposed to magnetic field according to the following protocol. […] The following parameters were recorded: Treatment Time—60 minutes; Magnetic field intensity—90 G (Gauss); Frequency—20 Hz. […]
Confirmation of tumor was assessed as follows: Formalin fixed tissue of tumor area samples from various organs were received. […]

HL60 cells [2] = assay: Rat HL60/estradiol tumor model with magnetic field exposure, cancer cell count in blood; type: in vivo
Protocol: as §1, §2
The rats were exposed to magnetic field according to the following protocol. Rats strapped to the VFVF magnetizer as described above. The device was switched on to apply magnetic force of known intensity, frequency and duration to cause “flip/flop” action in the biocompatible magnetic nanodiscs. This application of oscillating field force is expected to cause the Nanomagnetic particles bound to the cell to “flip/flop.” This action is expected to damage the cell wall leading to apoptosis. The following parameters were recorded: Treatment Time—60 minutes; Magnetic field intensity—90 G (Gauss); Frequency—20 Hz. Waveform—sinusoidal
Cancer cell count in blood was ascertained for the treatment groups.

[3] = Paclitaxel 40 mg/kg body weight
[4] = STD group (Paclitaxel 40 mg/kg), baseline

For CC(=O)O[C@H]1C(=O)[C@@]2(C)[C@H]([C@H](OC(=O)c3ccccc3)[C@]3(O)C[C@H](OC(=O)[C@H](O)[C@@H](NC(=O)c4ccccc4)c4ccccc4)C(C)=C1C3(C)C)[C@]1(OC(C)=O)CO[C@@H]1C[C@@H]2O [Paclitaxel], the “tumor histopathology (FIG. 8C)” value (HL60 cells [1]) was “neoplastic cells (small arrow) with stromal reaction, mitotic figures (arrow head), inflammation and necrosis (large arrow)”, the “Apoptotic cancer cells present per ml in the blood, After treatment 144 hrs” value (HL60 cells [2]; [3]) was 5.20 × 10^3 per ml in the blood and the “Viable cancer cells present per ml of blood, After treatment 144 hrs” value (HL60 cells [2]; [3]) was 5.47 × 10^3 per ml of blood. For the same compound, the “Apoptotic cancer cells present per ml in the blood, Before treatment” value (HL60 cells [2]; [4]) was 852 per ml in the blood and the “Viable cancer cells present per ml of blood, Before treatment” value (HL60 cells [2]; [4]) was 16.08 × 10^3 per ml of blood.
